The values that follow come from patent publication US9783575B2, “Methyl degron peptide and methods of controlling protein lifespan” (Seoul National University (SNU) R&D Foundation, priority 2012, dated 2017).

Test [1] has as its target T1, EZH2 (Homo sapiens, UniProt Q15910).
T1 construct: GST
The experiment in a line: In vitro methyltransferase (HMTase) assay with mass spectrometry. The class given is biochemical. As to conditions: 100 μM synthetic peptide, GST-EZH2, LC-MS (FIG. 4). As to the method:
Small quantities (100 μM) of synthetic peptides (RORα WT) were used as substrates in the HMTase assay with EZH2 enzyme; the reaction was stopped by 10% TCA precipitation for 10 min at 4° C. After removing the precipitates by centrifugation, the supernatants were retrieved and methylated peptides in the supernatants were analyzed by LC-MS. The eluted peptides were separated on a Luna column (C18 PepMap 100, 150×1 mm 5 micron) with a linear gradient (A: 100% H2O, 0.1% formic acid, B: 100% ACN, 0.1% formic acid) at a flow rate of […]. Typically, 2 μL of sample was injected. Mass spectrometry was performed on a linear ion trap mass spectrometer (LCQ DECA XP, Thermo Finningan) coupled to a nano-LC system (NANOSPACE SI-2, Shiseido). The MS method consisted of a cycle combining one full MS scan (Mass range: 160-2000 m/z).
The association of EZH2 with RORα at endogenous levels was confirmed by co-immunoprecipitation analysis (FIG. 3). To assess whether RORα is methylated by EZH2 and to determine the methylation status of RORα, peptides bearing amino acids 31-40 of RORα (LNQESARKSE) were in vitro methylated by EZH2 and analyzed by mass spectrometry. […]

For test [2], the system named is EZH2. The experiment in a line: Immunoblot of EZH2 and RORα protein levels with DZNep. The class given is cell-based. As to conditions: MCF7 cells, DZNep 1 μM, 24 hr, immunoblot (FIG. 19). The source says: (§1) In order to determine whether the ubiquitin-proteasome pathway is responsible for RORα degradation and to further examine whether the introduction of EZH2 augments RORα ubiquitination by allowing increased RORα methylation, we performed an RORα ubiquitination assay with EZH2 in the presence of a 26S proteasome inhibitor, MG132. […] To further examine whether K38 methylation directly affects RORα ubiquitination, we performed a ubiquitination assay for RORα WT and RORα K38A in the presence of MG132. Indeed, RORα K38A mutation led to a marked reduction in RORα ubiquitination compared to RORα WT (FIG. 18). Next, we examined whether an EZH2 small molecule inhibitor, exemplified by DZNep, rescues the EZH2-mediated degradation of RORα.
On the technique in general: Immunoblotting shows a protein as a band on a membrane.

The subject of test [3] is RORα ubiquitination. Kind of test: RORα ubiquitination assay with DZNep. The class given is cell-based. As to conditions: HEK-293T cells, DZNep 1 μM, 24 hr (FIG. 20). As to the method: Cells were transfected with combinations of plasmids including HisMax-ubiquitin. After incubation for 48 hrs, cells were treated with MG132, lysed in buffer A (6 M guanidinium-HCl, 0.1 M Na2HPO4/NaH2PO4, 0.01 M Tris-Cl [pH 8.0], 5 mM imidazole, and 10 mM β-mercaptoethanol), and incubated with Ni^2+-NTA beads (Qiagen) for 4 hrs at room temperature. The beads were sequentially washed with buffer A, buffer B (8 M urea, 0.1 M Na2PO4/NaH2PO4, 0.01 M Tris-Cl [pH 8.0], and 10 mM β-mercaptoethanol), and buffer C (8 M urea, 0.1 M Na2PO4/NaH2PO4, 0.01 M Tris-Cl [pH 6.3], and 10 mM β-mercaptoethanol). Bound proteins were eluted with buffer D (200 mM imidazole, 0.15 M Tris-Cl [pH 6.7], 30% glycerol, 0.72 M β-mercaptoethanol, and 5% SDS), and subject to immunoblot analysis.
as §1, with “Next, we examined whether an EZH2 small molecule inhibitor, exemplified by DZNep, rescues the EZH2-mediated degradation of RORα.” left out

The subject of test [4] is MCF7 breast cancer cells. The experiment in a line: Cell transformation assay (anchorage-independent growth in soft agar). It is filed as cell-based. On the set-up: dose or concentration left out as unconfirmed. As to conditions: 3 weeks (FIG. 60). As to the method:
Representative images are shown for each group. Immunoblot analysis was performed to detect each protein level. […]

T1 sequence (Q15910 whole entry, species assumed): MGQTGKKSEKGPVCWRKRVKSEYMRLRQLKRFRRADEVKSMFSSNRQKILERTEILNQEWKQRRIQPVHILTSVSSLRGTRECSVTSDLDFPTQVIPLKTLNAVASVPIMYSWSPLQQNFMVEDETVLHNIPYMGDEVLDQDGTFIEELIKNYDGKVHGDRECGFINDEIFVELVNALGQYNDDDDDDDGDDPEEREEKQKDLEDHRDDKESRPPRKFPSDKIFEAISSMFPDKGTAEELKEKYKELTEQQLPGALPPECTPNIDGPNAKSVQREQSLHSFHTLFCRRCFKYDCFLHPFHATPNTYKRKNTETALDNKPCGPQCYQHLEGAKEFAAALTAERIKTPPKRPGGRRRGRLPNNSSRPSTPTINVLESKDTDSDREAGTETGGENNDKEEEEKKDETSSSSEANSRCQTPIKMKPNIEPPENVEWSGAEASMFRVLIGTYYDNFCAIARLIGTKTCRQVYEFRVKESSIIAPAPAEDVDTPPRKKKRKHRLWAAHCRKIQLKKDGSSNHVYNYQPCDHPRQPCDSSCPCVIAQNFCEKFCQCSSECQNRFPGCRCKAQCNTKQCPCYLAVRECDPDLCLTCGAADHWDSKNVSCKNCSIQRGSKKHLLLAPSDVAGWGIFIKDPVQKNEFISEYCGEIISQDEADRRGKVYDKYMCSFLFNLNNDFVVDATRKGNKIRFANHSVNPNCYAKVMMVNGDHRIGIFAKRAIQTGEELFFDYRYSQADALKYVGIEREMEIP

Consider “LNQESARKSE [RORα wild-type (WT) peptide, peptide bearing amino acids 31-40 of RORα]”, for which the “methylation of peptide by EZH2” value in test [1] was “addition of one methyl group to the K38 site”.

As to `Nc1nccc2c1ncn2C1C=C(CO)C(O)C1O` (centres unmarked) [DZNep], in test [2], the EZH2 protein levels entry was “reduction of EZH2 protein levels” and the RORα protein levels result is on record as “increases in RORα protein levels”. In test [3], the RORα ubiquitination levels result is recorded as “decreased”. The “cellular transformation (colony formation in soft agar)” value in test [4] is “inhibitory effect on cellular transformation”.
